Patent US5795907A, “Gastin and CCK receptor ligands” (James Black Foundation Limited, priority 1994, dated 1998)

Tests used:
CCKA = target: T1, CCKA (Cavia porcellus, UniProt Q63931); test: CCKA radioligand binding assay in guinea-pig pancreas membranes ([125I]-CCK8(S)); details: PD134,308 present, 150 minutes at 21±3°; for Ki: read-out: CCKA pKi (converted)
T1 construct: The pancreatata were homogenised in 40 ml ice-cold HEPES buffer using a polytron; from tissue; host or cells: pancreas membranes of male Dunkin Hartley guinea-pigs
T1 sequence (Q63931 1-430): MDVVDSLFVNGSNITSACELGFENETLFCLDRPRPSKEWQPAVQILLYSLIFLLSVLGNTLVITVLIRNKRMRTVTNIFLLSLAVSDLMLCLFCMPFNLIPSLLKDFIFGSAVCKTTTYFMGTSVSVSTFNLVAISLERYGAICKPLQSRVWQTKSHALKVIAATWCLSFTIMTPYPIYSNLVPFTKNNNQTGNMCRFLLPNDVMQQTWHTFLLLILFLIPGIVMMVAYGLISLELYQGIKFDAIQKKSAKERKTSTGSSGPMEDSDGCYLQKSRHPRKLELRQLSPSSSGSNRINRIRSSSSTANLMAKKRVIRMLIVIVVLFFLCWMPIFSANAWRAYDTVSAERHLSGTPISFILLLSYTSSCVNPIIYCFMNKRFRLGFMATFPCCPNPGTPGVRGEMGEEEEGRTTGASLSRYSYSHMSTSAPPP
Description: The compounds of the examples were also tested in a CCKA as follows:
The pancreatata were removed from male guinea-pigs (200-300 g; Dunkin Hartley) and placed in ice-cold HEPES buffer (pH 7.2 @ 21 ±3). The pancreatata were homogenised in 40 ml ice-cold HEPES buffer using a polytron (Brinkmann, PT10, setting 10) 4×1 second. The homogenate was centrifuged at 39,800 g for 15 min at 4°. The supernatant was discarded and the pellet re-suspended using a Teflon-in-glass homogeniser in 20 volumes of fresh buffer and re-centrifuged as above.
The final pellet was re-suspended using a Teflon-in-glass homogeniser to a tissue concentration of 1 mg.ml^-1 (original wet weight), and filtered through 500 μm pore-size Nytex mesh.
The membranes (400 μl; containing 0.375 μM PD134,308) are incubated for 150 minutes at 21±3° in a final volume of 0.5 ml with HEPES buffer containing [^125 I]-CCK8 (S) (50 μl; […]) and competing compound. Total and non-specific binding of [^125 I]-CCK8 (S) are defined using 50 μl of buffer and 50 μl of 100 nM L-364,718 respectively. The assay is terminated by rapid filtration through pre-soaked Whatman GF/B filters using a Brandell Cell Harvester. The filters were washed (3×3 ml) with ice-cold 50 mM Tris HCl (pH 7.4 at 4°) and bound radioactivity is determined by counting (1 min) in a gamma counter.

CCKB receptor = target: T2, CCKB receptor (Mus musculus, UniProt P56481); test: CCKB receptor radioligand binding assay in mouse cortical membranes ([125I]-CCK8S); details: [125I]-CCK8S 200 pM, 150 min at 21±3°; for Ki: read-out: CCKB pKi (converted)
T2 construct: The cortex was dissected, weighed and homogenised in 40ml ice-cold buffer; tissue Charles River (supplier of the CD1 mice); host or cells: cerebral cortex membranes of male CD1 mice
T2 sequence (P56481 1-453): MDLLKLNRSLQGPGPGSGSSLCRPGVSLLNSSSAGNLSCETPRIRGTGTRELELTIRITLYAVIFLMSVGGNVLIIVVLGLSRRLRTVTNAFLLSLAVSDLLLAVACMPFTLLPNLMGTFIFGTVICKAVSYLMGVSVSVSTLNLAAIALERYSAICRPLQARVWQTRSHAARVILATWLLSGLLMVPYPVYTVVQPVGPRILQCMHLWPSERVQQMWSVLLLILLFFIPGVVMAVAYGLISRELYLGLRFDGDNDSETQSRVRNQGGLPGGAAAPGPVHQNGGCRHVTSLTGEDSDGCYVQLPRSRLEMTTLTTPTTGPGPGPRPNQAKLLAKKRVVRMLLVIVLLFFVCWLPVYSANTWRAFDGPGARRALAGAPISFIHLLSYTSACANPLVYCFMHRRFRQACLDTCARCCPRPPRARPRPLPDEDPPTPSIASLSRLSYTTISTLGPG
Description: The compounds of the examples were tested for binding at the CCKB receptor in mouse cortical membranes by means of a radioligand binding assay. The procedure was as follows:
The whole brains from male mice (CD1 22-25 g; Charles River) were removed and placed in ice-cold buffer (pH7.2 @ 21±3°) of the following composition (mM); 10 HEPES, 130 NaCl, 4.7 KCl, 5 MgCl2, 1 EDTA and containing 0.25g.^-1 bacitracin. The cortex was dissected, weighed and homogenised in 40ml ice-cold buffer using a Teflon-in-glass homogeniser. The homogenate was centrifuged at 39,800g for 20 min at 4°, the supernatant discarded and the pellet resuspended by homogenisation in fresh buffer. The homogenate was recentrifuged (39,800 g; 20 min @ 4°) and the final pellet was resuspended in HEPES buffer to give a tissue concentration of 2 mg.ml^-1 (original wet weight).
The membranes ([…]) were incubated for 150 min at 21±3° in a final volume of 0.5 ml with HEPES buffer containing [^125 I]-CCK8S (0.05 ml; 200 pM NEN 2200 Ci.mmol^-1) and competing compound. Total and non-specific binding of [^125 I]-CCK8S were defined using 0.05 ml of buffer and 0.05 ml of […] L-365,260, respectively. The assay was terminated by rapid filtration through pre-soaked Whatman GF/B filters using a Brandell Cell harvester. The filters were washed (3×3 ml) with ice-cold 50 mM Tris-HCl (pH7.4 @ 4° C.) and bound radioactivity determined by counting (1 min.) in a gamma-counter.

Molecule | CCKA pKi (CCKA) | Ki (CCKB receptor) [nM] | Ki (CCKA) [nM] | CCKB pKi (CCKB receptor)
O=C(NCC12CC3CC(CC(C3)C1)C2)c1cc2[nH]ccc2cc1C(=O)N[C@@H](Cc1ccccc1F)C(=O)Nc1cc(-c2nn[nH]n2)cc(-c2nn[nH]n2)c1 [Example 97, 5-(1S-(3,5-ditetrazolylphenylaminocarbonyl)-2-(2-fluorophenyl)ethylaminocarbonyl)-6-(1-adamantanemethylaminocarbonyl)-indole] | – | 0.794 | 501 | –
O=C(O)c1cc(NC(=O)[C@H](Cc2ccccc2)NC(=O)c2cc3ccn(S(=O)(=O)c4ccccc4)c3cc2C(=O)NCC23CC4CC(CC(C4)C2)C3)cc(C(=O)O)c1 [Example 45, 5-(1S-(3,5-dicarboxyphenylaminocarbonyl)-2-phenylethylaminocarbonyl)-6-(1-adamantanemethylamino-carbonyl)-N-phenylsulphonyl-indole] | 6.1 | – | – | 7.1
O=C(O)c1cc(NC(=O)[C@H](Cc2ccccc2)NC(=O)c2cc3[nH]cnc3cc2C(=O)NCc2ccc3ccccc3c2)cc(C(=O)O)c1 [Example 130, 5-(1S-(3,5-dicarboxyphenylaminocarbonyl)-2-phenylethylaminocarbonyl)-6-(2-naphthalenenemethylaminocarbonyl)-benzimidazole] | – | 25.1 | 3980 | –
5-(1S-(trans3,4-dimethoxycarbonylpyrrolidinocarbonyl)-2-phenylethylaminocarbonyl)-6-(1-adamantanemethylaminocarbonyl)-indole and regioisomer with substituents at positions 5 and 6 reversed [Example 49] | 5.6 | – | – | 5.6
CC(=O)NS(=O)(=O)c1cccc(NC(=O)[C@H](Cc2ccccc2)NC(=O)c2cc3cc[nH]c3cc2C(=O)NCC23CC4CC(CC(C4)C2)C3)c1 [Example 138, 5-(1S-(3-acetylaminosulphonylphenylaminocarbonyl)-2-phenylethylaminocarbonyl)-6-(1-adamantanemethylaminocarbonyl)-indole] | – | – | – | 8.1
O=C(O[C@H]1CO[C@@H](c2ccccc2)OC1)c1cc(NC(=O)[C@H](Cc2ccccc2)NC(=O)c2cc3cc[nH]c3cc2C(=O)NCC23CC4CC(CC(C4)C2)C3)cc(C(=O)O[C@H]2CO[C@@H](c3ccccc3)OC2)c1 [Example 106, 5-(1S-(3,5-di-(cis-4-phenyl-3,5-dioxacyclohexaneoxycarbonyl)-phenylaminocarbonyl)-2-phenylethylaminocarbonyl)-6-(1-adamantanemethyl-aminocarbonyl)-indole] | – | 2000 | – | –
O=C(O)c1cc(NC(=O)[C@H](Cc2ccccc2)NC(=O)c2cc3cc[nH]c3cc2C(=O)NCC2CCC(O)CC2)cc(C(=O)O)c1 (single isomer, unassigned) [Example 110, 5-(1S-(3,5-dicarboxyphenylaminocarbonyl)-2-phenylethylaminocarbonyl)-6-(4-hydroxycyclohexanemethylaminocarbonyl)-indole] | – | 398 | – | –
COC(=O)c1cc(NC(=O)[C@H](Cc2ccccc2)NC(=O)c2cc3ccccc3cc2C(=O)NCC23CC4CC(CC(C4)C2)C3)cc(C(=O)OC)c1 [Example 17, 2-(1S-(3,5-dimethoxycarbonyl-phenylamino-carbonyl)-2-phenylethylaminocarbonyl)-3-(1-adamantanemethylaminocarbonyl)-naphthalene] | – | – | 15800 | –
COC(=O)c1cc(NC(=O)[C@H](Cc2ccccc2)NC(=O)c2cc3ccccc3cc2C(=O)NCC23CC4CC(CC(C4)C2)C3)cc(C(=O)O)c1 [Example 18, 2-(1S-(3-methoxycarbonyl-5-carboxyphenylaminocarbonyl)-2-phenylethylaminocarbonyl)-3-(1-adamantanemethylaminocarbonyl)-naphthalene] | – | – | 501 | –

Continued, values first:

CCKA pKi (CCKA) | Ki (CCKB receptor) [nM] | Ki (CCKA) [nM] | CCKB pKi (CCKB receptor) | Molecule
5.1 | – | – | – | CC(C)(C)C(=O)OCOC(=O)c1cc(NC(=O)[C@H](Cc2ccccc2)NC(=O)c2cc3ccoc3cc2C(=O)NCC23CC4CC(CC(C4)C2)C3)cc(C(=O)OCOC(=O)C(C)(C)C)c1 [Example 121, 5-(1S-(3,5-di-t-butylcarbonyloxymethyloxycarbonylphenylaminocarbonyl)-2-phenylethylaminocarbonyl)-6-(1-adamantanemethylaminocarbonyl)-benzofuran]
– | 794 | 1580 | – | NC(=O)c1cc(NC(=O)[C@H](Cc2ccccc2)NC(=O)c2cc3[nH]cnc3cc2C(=O)NCC23CC4CC(CC(C4)C2)C3)cc(C(N)=O)c1 [Example 117, 5-(1S-(3,5-diaminocarbonylphenylaminocarbonyl)-2-phenylethylaminocarbonyl)-6-(1-adamantanemethylaminocarbonyl)-benzimidazole]
– | 63.1 | – | – | Nc1ccc(C[C@H](NC(=O)c2cc3[nH]cnc3cc2C(=O)NCC23CC4CC(CC(C4)C2)C3)C(=O)Nc2cc(C(=O)O)cc(C(=O)O)c2)cc1 [Example 64, 5-(1S-(3,5-dicarboxyphenylaminocarbonyl)-2-(4-aminophenyl)-ethylaminocarbonyl)-6-(1-adamantanemethylaminocarbonyl)-benzimidazole]
– | 631 | 1000 | – | O=Cc1cc(C=O)cc(NC(=O)[C@H](Cc2ccccc2)NC(=O)c2cc3[nH]cnc3cc2C(=O)NCC23CC4CC(CC(C4)C2)C3)c1 [Example 120, 5-(1S-(3,5-hydrogencarbonylphenylaminocarbonyl)-2-phenylethylaminocarbonyl)-6-(1-adamantanemethylaminocarbonyl)-benzimidazole]
– | 1580 | > 10000 | – | Cc1nc2cc(C(=O)NCC34CC5CC(CC(C5)C3)C4)c(C(=O)N[C@@H](Cc3ccccc3)C(=O)Nc3cc(C(=O)O)cc(C(=O)O)c3)cc2[nH]1 [Example 111, 5-(1S-(3,5-dicarboxyphenylaminocarbonyl)-2-phenylethylaminocarbonyl)-6-(1-adamantanemethylaminocarbonyl)-2-methylbenzimidazole]
– | – | – | 5.8 | 5-(1S-(3,5-diaminophenylaminocarbonyl)-2-phenylethylaminocarbonyl)-6-(1-adamantanemethyl-N-methylaminocarbonyl)-indole and regioisomer with substituents at positions 5 and 6 reversed [Example 43]
